This note sets out measurements from patent US9809560B2, “Ligands and methods for labeling biomolecules in vivo” (Albert Einstein College of Medicine, Inc., priority 2010, dated 2017).

A short description of series [1]: Fluorogenic kinetic assay of CuAAC of 3-azido-7-hydroxy-coumarin and propargyl alcohol. The note with it: 75 μM CuSO4 premixed with ligand, [ligand]:[copper] 2:1 to 6:1; within 15 min. The procedure: FIG. 1A-1C. Copper(I)-catalyzed azide-alkyne cycloaddition (CuAAC) is accelerated by Cu(I)-stabilizing ligands. (A) CuAAC of azides and terminal alkynes to form 1,4-disubstituted 1,2,3-triazoles. (B) Structures of CuAAC-accelerating ligands. (C) Conversion-time profiles of CuAAC in the presence/absence of accelerating ligands. Reaction conditions: propargyl alcohol (50 μM), 3-azido-7-hydroxy-coumarin (100 μM), CuSO4 (75 μM), 0.1 M potassium phosphate buffer (pH 7.0)/DMSO 95:5, sodium ascorbate ([…]), rt. Error bars represent the standard deviation of three replicate experiments.
Protocol for Kinetic Measurement of CuAAC of 3-azido-7-hydroxy-coumarin and Propargyl Alcohol […]
Procedure for 200 μL reactions: In a 96-well fluorescence plate, add the reagents in the following order: (1) 40 μL of 500 mM phosphate buffer pH 7.0; (2) 1.0 μL 10 mM propargyl alcohol; (3) 10 μL of DMSO; (4) 6 μL of premixed CuSO4 and ligand ([Cu]=2.5 mM); (5) 1.0 μL 20 mM coumarin-N3; (6) 20 μL of 25 mM sodium ascorbate; (7) Read fluorescence (λex=404 nm, λem=477 nm, RFU) on the Synergy plate reader.

In the next series the test system is zebrafish embryos. The series is described as follows: Imaging of fucosylated glycans in zebrafish embryos microinjected with GDP-FucAl. Format: in vivo. The conditions noted are these: among 120 embryos microinjected with nucleotide sugar analogues and treated with click reagents, through four days post click reaction. As for the experimental part:
Zebrafish embryos at the one-cell or two-cell stage were microinjected in the yolk with 1 nL of a 20 mM solution of GDP-FucAl (or GDP-fucose) and either rhodamine-dextran (5% w/v) or phenol red (0.1% w/v) in 0.2 M KCl as a tracer. The embryos were allowed to develop to 5 hpf, at which point they were manually dechorionated. The dechorionated embryos were cultured in E3 embryo medium at 28° C. for an additional 3 h before transferring to 1% agarose-coated 96-well plates containing 92 μL embryo medium using a fire-polished wide-bore Pasteur pipette. Alexa Fluor-488 azide (100 μM from a 1.75 mM stock in H2O) was added to each well, followed by BTTES-CuSO4 or BTTA-CuSO4 6:1 complex ([Cu]=50 μM from 2.5 mM stock). […] After mounting on a slide or 50 mm glass bottom dishes (Matek) in 1.5-3% methyl cellulose and E3 medium, the embryos were ready for imaging by confocal microscopy.
To image fucosylated glycans in zebrafish embryos, GDP-FucAl was synthesized chemoenzymatically and microinjected embryos at the one-cell stage with 20 pmol of GDP-FucAl (FIG. 4B). […] Robust labeling of the treated embryos was achieved within 1-3 min reaction (FIG. 4C), and only background fluorescence was detected for control embryos microinjected with GDP-fucose (FIG. 10). […]

Structures are written as SMILES.

With `CC(C)(C)n1cc(CN(Cc2cn(CCOS(=O)(=O)O)nn2)Cc2cn(C(C)(C)C)nn2)nn1` [BTTES], the cycloaddition product yield in series [1] is listed as more than 50%. For the same compound, the “embryos with minor developmental defects” value in the series on zebrafish embryos is recorded as “less than twelve embryos exhibited minor developmental defects”.
